Results on one molecule are retold here after patent publication US9115159B2, “Phosphate compounds, a process for their preparation and pharmaceutical compositions containing them” (LES LABORATOIRES SERVIER, priority 2013, dated 2015).

The nature of data set [1]: Pharmacokinetic profile in the Wistar rat, lipid versus aqueous formulation. It counts as in vivo, male Wistar rats. Particulars: Drug from Example 1 administered 100 mg/kg p.o., plasma. How it is done: The pharmacokinetic profile of N-(4-hydroxyphenyl)-3-{6-[((3S)-3-(4-morpholinyl-methyl)-3,4-dihydro-2(1H)-isoquinolinyl)carbonyl]-1,3-benzodioxol-5-yl}-N-phenyl-5,6,7,8-tetrahydro-1-indolizine carboxamide (also referred to as the drug from Example 1) is also evaluated in a lipid and aqueous formulation in the Wistar rat.
The drug from Example 1 is prepared in an aqueous suspension in hydroxyethylcellulose 1% (w/v) in water and compared to a lipid formulation composed of a mixture of anhydrous ethanol/polyethylene glycol 400/Phosal 50PG ([…], v/v/v). The two formulations are administered by the oral route to male Wistar rats (3 rats per formulation) at a dose of 100 mg/kg p.o. (gavage, 10 mL/kg).
Blood samples are taken at the following points in time from each animal (3 animals/point in time): 0.25 hr, 0.5 hr, 0.75 hr, 1 hr, 2 hrs, 4 hrs, 8 hrs and 24 hrs after oral administration.
The plasma concentrations of the tested compound are determined after extraction followed by liquid chromatography coupled with mass spectrometric detection. The limit of quantification is 0.1 ng/mL.

Data set [2] in a line: Pharmacokinetic profile / in vivo conversion after oral administration to SCID mice (plasma, LC-MS/MS). To be noted: female, mouse, po; for Cmax: read-out: Cmax, compound measured: Drug from Example 1; for AUC(0-t): read-out: AUCt, compound measured: Drug from Example 1; for Tmax: read-out: Tmax, compound measured: Drug from Example 1. Further details: species or system female SCID mice. In outline:
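Female SCID mice were gavaged with phosphate prodrug in EtOH/PEG300/water (10/40/50) at 3 or 25 mg/kg, or in aqueous media (1 mM Na2CO3, water, or 1M Na2CO3) at 3–100 mg/kg. Plasma prodrug and hydroxylated drug were measured by TFC-LC-MS/MS over 0.25–24 h. Non-compartmental analysis used mean concentrations.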

A short description of data set [3]: Solubility in aqueous medium buffered to physiological pH (phosphate 0.33M, pH 7.4). It counts as physicochemical. To be noted: phosphate 0.33M, pH = 7.4. As to the method: The solubilities of the compounds were also measured in a medium buffered to physiological pH (cf. Table 3).
The mark [4] stands for this setting: aqueous formulation (suspension in hydroxyethylcellulose 1% in water).
Where [5] appears, read: lipid formulation (anhydrous ethanol/polyethylene glycol 400/Phosal 50PG).
[6] abbreviates: Drug from Example 1 administered 3 mg/kg p.o., lipid formulation.
Where [7] appears, read: Drug from Example 1 administered 25 mg/kg p.o., lipid formulation.
Setting [8] is: Drug from Example 1 administered 30 mg/kg p.o., lipid formulation.
Where [9] appears, read: Drug from Example 1 administered 100 mg/kg p.o., lipid formulation.

Read-outs that look alike come from different tables or passages of the source.

For the molecule `O=C(c1cc(-c2cc3c(cc2C(=O)N2Cc4ccccc4C[C@H]2CN2CCOCC2)OCO3)n2c1CCCC2)N(c1ccccc1)c1ccc(O)cc1` [Drug from Example 1, N-(4-hydroxyphenyl)-3-{6-[((3S)-3-(4-morpholinylmethyl)-3,4-dihydro-2(1H)-isoquinolinyl)carbonyl]-1,3-benzodioxol-5-yl}-N-phenyl-5,6,7,8-tetrahydro-1-indolizine carboxamide], the “AUCt, compound measured: Drug from Example 1” value was “AUCt (ng · h/mL) = 3480” in data set [1] (setting [4]) and “AUCt (ng · h/mL) = 42900” in data set [1] (setting [5]). For the same molecule, the “Cmax, compound measured: Drug from Example 1” value was “Cmax (ng/mL) = 816” in data set [1] (setting [4]) and “Cmax (ng/mL) = 5070” in data set [1] (setting [5]). Besides, the Cmax turned out to be 295 ng/mL in data set [2] (Drug from Example 1 administered 3 mg/kg p.o., lipid formulation (ethanol/PEG 300/water 10/40/50)); 5070 ng/mL in data set [2] (setting [7]); 8580 ng/mL in data set [2] (setting [8]); 25900 ng/mL in data set [2] (setting [9]). Moreover, the AUC(0-t) was determined as 225 ng·h/mL in data set [2] (setting [6]), 20400 ng·h/mL in data set [2] (setting [7]), 24200 ng·h/mL in data set [2] (setting [8]) and 148000 ng·h/mL in data set [2] (setting [9]). Further, the Tmax in data set [2] (setting [6]) came out at 15 min; in data set [2] (setting [7]), 120 min; in data set [2] (setting [8]), 60 min; in data set [2] (setting [9]), 30 min. Moreover, the “Solubility at 10 μM” value in data set [3] (10 μM) was “Insoluble”. The “Solubility at 20 μM” value in data set [3] (20 μM) is “Insoluble”. In addition, in data set [3] (50 μM), the “Solubility at 50 μM” value is “Insoluble”. The “Solubility at 100 μM” value in data set [3] (100 μM) was “Insoluble”.
